This is an account of results in US8648105B2, “Diarylthiohydantoin compounds” (The Regents of the University of California, priority 2006, dated 2014).

Common to all, as to format: cell-based
Holding throughout (set-up): Fold induction, AR response reporter

Test [1] has as its target T1, AR (Homo sapiens, UniProt P10275).
T1 sequence (P10275 1-920): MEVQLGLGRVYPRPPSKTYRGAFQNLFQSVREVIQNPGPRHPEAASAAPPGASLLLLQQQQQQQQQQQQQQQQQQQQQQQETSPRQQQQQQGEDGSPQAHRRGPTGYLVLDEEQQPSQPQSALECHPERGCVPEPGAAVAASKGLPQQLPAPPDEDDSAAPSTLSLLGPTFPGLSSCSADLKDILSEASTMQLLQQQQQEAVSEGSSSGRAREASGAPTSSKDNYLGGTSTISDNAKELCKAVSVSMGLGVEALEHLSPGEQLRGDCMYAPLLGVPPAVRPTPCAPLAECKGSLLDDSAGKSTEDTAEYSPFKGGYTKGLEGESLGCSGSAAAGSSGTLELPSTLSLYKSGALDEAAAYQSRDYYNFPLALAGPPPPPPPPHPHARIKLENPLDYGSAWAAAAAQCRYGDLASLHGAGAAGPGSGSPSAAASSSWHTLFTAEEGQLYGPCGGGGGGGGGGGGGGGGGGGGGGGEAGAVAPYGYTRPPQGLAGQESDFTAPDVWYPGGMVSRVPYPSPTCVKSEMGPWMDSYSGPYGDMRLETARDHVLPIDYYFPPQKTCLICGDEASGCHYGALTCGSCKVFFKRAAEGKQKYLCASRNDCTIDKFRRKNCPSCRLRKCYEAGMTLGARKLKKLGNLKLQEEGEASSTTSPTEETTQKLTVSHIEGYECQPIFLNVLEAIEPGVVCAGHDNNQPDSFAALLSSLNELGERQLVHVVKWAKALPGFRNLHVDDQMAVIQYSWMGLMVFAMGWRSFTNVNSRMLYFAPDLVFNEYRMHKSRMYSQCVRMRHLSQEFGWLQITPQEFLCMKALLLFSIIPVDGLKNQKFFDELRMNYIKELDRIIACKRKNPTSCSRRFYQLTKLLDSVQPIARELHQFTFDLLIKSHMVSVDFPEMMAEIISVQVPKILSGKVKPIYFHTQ
The following applies: for rank by relative PSA level, most active to least active: 500 nM; for PSA levels of LN-AR cells: 100, 200, 500, and 1000 nM, FIG. 20. How it is done: It is well established that PSA levels are indicators of AR activities in prostate cancer. […] The LNCaP-AR cells are a line of lymph node carcinoma of prostate cells transduced with a plasmid that makes express androgen receptors. […] After four days incubation, secreted PSA levels were assayed using PSA ELISA kits (American Qualex, San Clemente, Calif.)

Test [2] has as its target T1, AR. Particulars: for inhibitory activity on AR response reporter: hormone refractory LNCaP-AR; for luciferase activity in LNCaP-AR cells: 125 nM to 1000 nM; for luciferase activity in LNCaP-AR cells / rank by relative luciferase activity, most active to least active: FIG. 3; for rank by relative luciferase activity, most active to least active: 500 nM. How it is done:
The compounds were subjected to tests using an artificial AR response reporter system in a hormone refractory prostate cancer cell line. […] After two days of incubation, reporter activities were assayed.

Test [3] deals with T1, AR. The following applies: AR over expressed LNCaP, absence of R1881.
The target of test [4] is T1, AR. Particulars: LN-AR, absence of R1881. The procedure:
Activities of AR response reporter were measured.

Where [5] appears, read: LN/AR cell line, 125 nmol to 1000 nmol.

Turning to `CNC(=O)CCc1ccc(N2C(=S)N(c3ccc(C#N)c(C(F)(F)F)c3)C(=O)C23CCC3)cc1` [NC44, 3-{4-[7-(4-Cyano-3-trifluoromethylphenyl)-8-oxo-6-thioxo-5,7-diaza-spiro[3.4]oct-5-yl]-phenyl}-N-methyl-propionamide], at AR [1], the “decrease in PSA level of LNCaP-AR cells (comparison)” value (“decrease in PSA level” for short) is “greater decrease in PSA level of LNCaP-AR cells than NC45 and NC49”; the “rank by relative PSA level, most active to least active” value (“rank by relative PSA level” below) is reported as “NC50>NC48>NC7>NC43>NC44>NC49>NC50>NC45>bicalutamide”.
As to `CN1C(=S)N(c2ccc(C#N)c(C(F)(F)F)c2)C(=O)C12CCCC2` [NC26, 4-(1-methyl-4-oxo-2-thioxo-1,3-diazaspiro[4.4]non-3-yl)-2-trifluoromethylbenzonitrile, reference compound], on AR [2], the “inhibitory activity on AR response reporter” value (“inhibitory activity” below) is “no inhibitory activities”. Further, the “agonistic activity on secreted PSA” value at AR [3] is recorded as “stimulated PSA expression”. The “agonistic activity on AR response reporter” value on AR [4] is “strongly activated AR”.
As for `N#Cc1ccc(N2C(=O)C3(CCC3)N(c3ccc(CCC(N)=O)cc3)C2=S)cc1C(F)(F)F` [NC43, 3-{4-[7-(4-cyano-3-trifluoromethylphenyl)-8-oxo-6-thioxo-5,7-diaza-spiro[3.4]oct-5-yl]-phenyl}-propionamide], on AR [1], the “decrease in PSA level” value is “greater decrease in PSA level of LNCaP-AR cells than NC45 and NC49”; the “rank by relative PSA level” value is reported as “NC50>NC48>NC7>NC43>NC44>NC49>NC50>NC45>bicalutamide”.
As to `CN1C(=O)N(c2ccc(C#N)c(C(F)(F)F)c2)C(=O)C12CCCC2` [NC27, 4-(1-methyl-2,4-dioxo-1,3-diaza-spiro[4.4]non-3-yl)-2-trifluoromethylbenzonitrile, reference compound], the “inhibitory activity” value at AR [2] is on record as “no inhibitory activities”. On AR [4], the “agonistic activity on AR response reporter” value is “strongly activated AR”.
`N#Cc1ccc(N2C(=O)C3(CCC3)N(c3ccc(CCCC(N)=O)cc3)C2=S)cc1C(F)(F)F` [NC47, 4-{4-[7-(4-Cyano-3-trifluoromethylphenyl)-8-oxo-6-thioxo-5,7-diaza-spiro[3.4]oct-5-yl]-phenyl}-butyramide]: the “PSA level (comparison)” value on AR [1] (setting [5]) was “less than the PSA level upon exposure to NC42 and NC46”.
On to `N#CCCCc1ccc(N2C(=S)N(c3ccc(C#N)c(C(F)(F)F)c3)C(=O)C23CCC3)cc1` [NC57, 4-(5-(4-(3-Cyanopropyl)phenyl)-8-oxo-6-thioxo-5,7-diazaspiro[3.4]octan-7-yl)-2-(trifluoromethyl)benzonitrile], for which the “PSA levels of LN-AR cells” value on AR [1] is reported as “PSA levels of LN-AR cells decreased”.
Turning to `N#Cc1ccc(N2C(=O)C3(CCC3)N(c3ccc(N4CCNCC4)cc3)C2=S)cc1C(F)(F)F` [NC49, 4-[8-Oxo-5-(4-piperazin-1-yl-phenyl)-6-thioxo-5,7-diazaspiro[3.4]oct-7-yl]-2-trifluoromethylbenzonitrile], at AR [1], the “decrease in PSA level” value was “greater decrease in PSA level than bicalutamide” and the “rank by relative PSA level” value is “NC50>NC48>NC7>NC43>NC44>NC49>NC50>NC45>bicalutamide”.
In the case of `CS(=O)(=O)c1ccc(N2C(=S)N(c3ccc(C#N)c(C(F)(F)F)c3)C(=O)C23CCC3)cc1` [NC66], on AR [2], the “luciferase activity in LNCaP-AR cells” value is listed as “acted to reduce luciferase activity” and the “rank by relative luciferase activity, most active to least active” value (shortened to “rank by relative luciferase activity”) was “NC67>NC68>NC66>NC69>NC77=NC53>bicalutamide”.
With `CCNC(=S)N=C1N(c2ccc(C#N)c(C(F)(F)F)c2)C(=S)N(c2ccc(C)cc2)C1(C)C` [NC34, 1-[3-(4-cyano-3-trifluoromethyl-phenyl)-5,5-dimethyl-2-thioxo-1-p-tolyl-imidazolidin-4-ylidene]-3-ethyl-thiourea], the “agonistic activity on secreted PSA” value on AR [3] is listed as “no agonistic activities”. Also, the “agonistic activity on AR response reporter” value at AR [4] is on record as “no agonistic activity”.
On to `CS(=O)(=O)N1CCN(c2ccc(N3C(=S)N(c4ccc(C#N)c(C(F)(F)F)c4)C(=O)C34CCC4)cc2)CC1` [NC50, 4-{5-[4-(4-methanesulfonylpiperazin-1-yl)-phenyl]-8-oxo-6-thioxo-5,7-diazaspiro[3.4]oct-7-yl}-2-trifluoromethylbenzonitrile], for which, at AR [1], the “decrease in PSA level” value was “greater decrease in PSA level of LNCaP-AR cells than NC45 and NC49”; the “rank by relative PSA level” value is recorded as “NC50>NC48>NC7>NC43>NC44>NC49>NC50>NC45>bicalutamide”.
As to `N#Cc1ccc(N2C(=O)C3(CCC3)N(c3ccc(O)cc3F)C2=S)cc1C(F)(F)F` [NC69], at AR [2], the “luciferase activity in LNCaP-AR cells” value is “acted to reduce luciferase activity” and the “rank by relative luciferase activity” value is listed as “NC67>NC68>NC66>NC69>NC77=NC53>bicalutamide”.
For `CNC(=O)c1ccc(N2C(=S)N(c3ccc(C#N)c(C(F)(F)F)c3)C(=O)C2(C)C)cc1` [NC68], on AR [2], the “luciferase activity in LNCaP-AR cells” value is recorded as “acted to reduce luciferase activity” and the “rank by relative luciferase activity” value is reported as “NC67>NC68>NC66>NC69>NC77=NC53>bicalutamide”. Also, the “luciferase activity (comparison)” value at AR [2] (setting [5]) is “less than the luciferase activity upon exposure to NC103”.
Take `N#Cc1ccc(N2C(=O)C3(CCCC3)NC2=S)cc1C(F)(F)F` [NC28, 4-(4-oxo-2-thioxo-1,3-diazaspiro[4.4]non-3-yl)-2-trifluoromethylbenzonitrile, reference compound]: the “inhibitory activity” value against AR [2] is recorded as “no inhibitory activities”. For the same compound, the “agonistic activity on AR response reporter” value on AR [4] is “strongly activated AR”.
As to `N#Cc1ccc(N2C(=O)C3(CCC3)N(c3ccc(CCC(=O)NCCO)cc3)C2=S)cc1C(F)(F)F` [NC45, 3-{4-[7-(4-cyano-3-trifluoromethylphenyl)-8-oxo-6-thioxo-5,7-diaza-spiro[3.4]oct-5-yl]-phenyl}-N-(2-hydroxyethyl)-propionamide], on AR [1], the “decrease in PSA level” value is “greater decrease in PSA level than bicalutamide” and the “rank by relative PSA level” value was “NC50>NC48>NC7>NC43>NC44>NC49>NC50>NC45>bicalutamide”.
For the compound `COC(=O)c1ccc(N2C(=S)N(c3ccc(C#N)c(C(F)(F)F)c3)C(=O)C2(C)C)cc1` [NC67], on AR [2], the “luciferase activity in LNCaP-AR cells” value is listed as “acted to reduce luciferase activity” and the “rank by relative luciferase activity” value was “NC67>NC68>NC66>NC69>NC77=NC53>bicalutamide”.
Regarding `Cc1ccc(N2C(=S)N(c3ccc(C#N)c(C(F)(F)F)c3)C(=NC(=S)Nc3ccccc3)C23CCC3)cc1` [NC35, 1-[7-(4-cyano-3-trifluoromethyl-phenyl)-6-thioxo-5-p-tolyl-5,7-diaza-spiro[3.4]oct-8-ylidene]-3-phenyl-thiourea], the “agonistic activity on secreted PSA” value on AR [3] was “no agonistic activities”. Further, on AR [4], the “agonistic activity on AR response reporter” value is recorded as “no agonistic activity”.
`CNC(=O)c1ccc(N2C(=S)N(c3ccc(C#N)c(C(F)(F)F)c3)C(=O)C23CCCC3)cc1F` [NC55, 4-(3-(4-Cyano-3-(trifluoromethyl)phenyl)-4-oxo-2-thioxo-1,3-diazaspiro[4.4]nonan-1-yl)-2-fluoro-N-methylbenzamide]: on AR [1], the “PSA levels of LN-AR cells” value was “PSA levels of LN-AR cells decreased”.
Still for that read-out and setting: under `CN(C)C(=O)CCCc1ccc(N2C(=S)N(c3ccc(C#N)c(C(F)(F)F)c3)C(=O)C23CCC3)cc1` [NC56, 4-(4-(7-(4-Cyano-3-(trifluoromethyl)phenyl)-8-oxo-6-thioxo-5,7-diazaspiro[3.4]octan-5-yl)phenyl)-N,N-dimethylbutanamide] stands “PSA levels of LN-AR cells decreased”.
In the case of `Cc1ccc(N2C(=S)N(c3ccc(C#N)c(C(F)(F)F)c3)C(=NC(=S)Nc3ccc(C#N)c(C(F)(F)F)c3)C23CCC3)cc1` [NC36, 1-(4-Cyano-3-trifluoromethyl-phenyl)-3-[7-(4-cyano-3-trifluoromethyl-phenyl)-6-thioxo-5-p-tolyl-5,7-diaza-spiro[3.4]oct-8-ylidene]-thiourea], at AR [3], the “agonistic activity on secreted PSA” value is “no agonistic activities”. In addition, the “agonistic activity on AR response reporter” value on AR [4] is reported as “no agonistic activity”.
